The values below come from ChEMBL document CHEMBL4011586 (Eur J Med Chem, 2017).

SMILES strings stand for the structures. Calls of active or inactive are those of the source. The calls are words filed in the database; no cut-off is given here. Where only a bound is given, the exact number is not on record here.

Data set [1] concerns PC-12. Nature of the data set: Neuroprotective activity against rotenone-induced toxicity in rat PC12 cells at 50 to 100 uM pretreated followed by rotenone challenge measured after 24 hrs. Type of data set: functional, cell-based.
The target in data set [2] is T1, Amine oxidase [flavin-containing] A (Homo sapiens, UniProt P21397).
T1 sequence (P21397 whole entry): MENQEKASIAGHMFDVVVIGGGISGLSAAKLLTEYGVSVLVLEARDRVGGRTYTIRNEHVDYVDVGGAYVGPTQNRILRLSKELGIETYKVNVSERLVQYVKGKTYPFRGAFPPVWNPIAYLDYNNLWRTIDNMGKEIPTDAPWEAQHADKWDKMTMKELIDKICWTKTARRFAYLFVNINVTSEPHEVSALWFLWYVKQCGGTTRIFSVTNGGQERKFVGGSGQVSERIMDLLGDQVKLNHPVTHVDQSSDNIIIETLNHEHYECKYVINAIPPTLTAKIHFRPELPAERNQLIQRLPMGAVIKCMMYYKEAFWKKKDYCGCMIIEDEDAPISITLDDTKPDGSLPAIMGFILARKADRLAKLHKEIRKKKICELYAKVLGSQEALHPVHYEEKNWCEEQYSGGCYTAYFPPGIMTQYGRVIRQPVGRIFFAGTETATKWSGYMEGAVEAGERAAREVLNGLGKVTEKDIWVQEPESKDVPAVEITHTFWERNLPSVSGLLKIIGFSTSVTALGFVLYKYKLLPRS
In words: Inhibition of recombinant human MAO-A expressed in baculovirus infected BTI insect cells assessed as reduction in H2O2 production using p-tyramine as substrate pretreated for 30 mins followed by substrate addition after 30 mins by Amplex red reagent based assay.

The target in data set [3] is T2, Amine oxidase [flavin-containing] B (Homo sapiens, UniProt P27338).
T2 sequence (P27338 whole entry): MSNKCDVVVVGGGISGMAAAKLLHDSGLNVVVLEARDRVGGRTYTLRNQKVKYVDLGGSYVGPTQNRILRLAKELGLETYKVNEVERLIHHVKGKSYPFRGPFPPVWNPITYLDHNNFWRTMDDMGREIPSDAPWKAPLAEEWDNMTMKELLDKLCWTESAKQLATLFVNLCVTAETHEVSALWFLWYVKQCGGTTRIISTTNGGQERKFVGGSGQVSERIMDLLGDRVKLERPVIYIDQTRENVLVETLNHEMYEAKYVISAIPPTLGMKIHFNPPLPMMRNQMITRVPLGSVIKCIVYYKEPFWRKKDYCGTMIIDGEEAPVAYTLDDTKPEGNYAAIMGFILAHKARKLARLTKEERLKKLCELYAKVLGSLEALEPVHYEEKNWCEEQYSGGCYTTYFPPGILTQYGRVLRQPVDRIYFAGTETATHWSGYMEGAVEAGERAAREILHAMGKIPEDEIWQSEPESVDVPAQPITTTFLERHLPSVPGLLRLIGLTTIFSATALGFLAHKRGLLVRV
In words: Competitive inhibition of recombinant human MAO-B expressed in baculovirus infected BTI insect cells assessed as reduction in H2O2 production at 11 to 44 nM using varying levels of p-tyramine as substrate pretreated up to 60 mins followed by substrate addition measured after 30 mins by Line-weaver burk plot analysis. The settings on record: 0.5 h.

Data set [4] is described as follows: Cytotoxicity against rat PC12 cells assessed as cell viability at 50 uM after 24 hrs by WST-1 assay relative to control. The settings on record: read-out: Activity. Type of data set: cell-based, PC-12.
In data set [5] the target is T2, Amine oxidase [flavin-containing] B. In words: Reversible inhibition of recombinant human MAO-B expressed in baculovirus infected BTI insect cells assessed as reduction in H2O2 production using p-tyramine as substrate at 3 times IC50 pretreated up to 60 mins followed by substrate addition after 30 mins by Amplex red reagent based assay. The settings on record: 0.5 h.

For data set [6], the species on record is Homo sapiens. Nature of the data set: Selectivity index, ratio of IC50 for recombinant human MAO-A to IC50 for recombinant human MAO-B.
Data set [7] can be described thus: Cytotoxicity against human SH-SY5Y cells assessed as cell viability at 50 uM after 24 hrs by WST-1 assay relative to control. Type of data set: cell-based. The settings on record: read-out: Activity.
In data set [8] the target is T2, Amine oxidase [flavin-containing] B. Nature of the data set: Inhibition of recombinant human MAO-B expressed in baculovirus infected BTI insect cells assessed as reduction in H2O2 production using p-tyramine as substrate pretreated for 30 mins followed by substrate addition after 30 mins by Amplex red reagent based assay.
Data set [9] concerns PC-12. Nature of the data set: Neuroprotective activity against H2O2-induced toxicity in rat PC12 cells at 50 to 100 uM pretreated followed by H2O2 challenge measured after 24 hrs. Type of data set: functional, cell-based.
Data set [10] in a line: Cytotoxicity against rat PC-12 Adh cells assessed as cell viability at 50 uM after 24 hrs by WST-1 assay relative to control. The settings on record: read-out: Activity. Type of data set: cell-based.
Data set [11] has as its target T2, Amine oxidase [flavin-containing] B. In words: Competitive inhibition of recombinant human MAO-B expressed in baculovirus infected BTI insect cells assessed as reduction in H2O2 production at 4 to 16 nM using varying levels of p-tyramine as substrate pretreated up to 60 mins followed by substrate addition measured after 30 mins by Line-weaver burk plot analysis. The settings on record: 0.5 h.

Regarding `O=C1COC(c2ccc(/C=C/c3cccc(F)c3)cc2)=NN1`, the result in [1] and in data set [9] was inactive. For the same compound, the IC50 in [2] is above 100 µM; in data set [8], 0.022 µM. In addition, the “inhibition (INH)” value in data set [3] and in data set [5] was “Active” throughout. Moreover, the viability at 24 h, 50 µM in data set [4], in data set [7] and in data set [10] was above 90% in each case. For the same compound, the Ratio IC50 in data set [6] is above 4540.
As for `O=C1COC(c2ccc(C(=O)Nc3cccc(Cl)c3)cc2)=NN1`, the concentration for half-maximal inhibition (IC50) is above 100 µM in data set [2] and 0.288 µM in data set [8]. Moreover, the Ratio IC50 in data set [6] was above 344.
Taken in the same sequence, the figures for `O=C1COC(c2ccc(/C=C/c3cccc(Cl)c3)cc2)=NN1` were above 100 µM, 0.173 µM and above 578.
For the compound `O=C1COC(c2ccc(/C=C/c3ccccc3)cc2)=NN1`, the values for the IC50 in data set [2] and in data set [8] were above 100 µM and 0.165 µM, respectively. Besides, in data set [6], the Ratio IC50 is above 606.
As for `O=C1COC(c2ccc(NCc3cccc(Cl)c3)cc2)=NN1`, the IC50 is above 100 µM in [2] and 2.69 µM in data set [8]. In data set [6], the Ratio IC50 is above 37.
For the compound `Cc1cccc(/C=C/c2ccc(C3=NNC(=O)CO3)cc2)c1`, the IC50 is above 100 µM in data set [2] and 0.338 µM in data set [8]. In data set [6], the Ratio IC50 was above 296.
Taken in the same sequence, the figures for `O=C1COC(c2ccc(/N=C/c3cccc(F)c3)cc2)=NN1` were above 100 µM, 1.53 µM and above 65.
Regarding `NC(=O)CN1N=C(c2ccc(NC(=O)c3cccc(Cl)c3)cc2)OCC1=O`, the IC50 was above 100 µM in [2] and 3.69 µM in [8]. Moreover, the Ratio IC50 in data set [6] was above 27.
On to `O=C1COC(c2ccc(/C=N/Nc3cccc(Cl)c3)cc2)=NN1`, for which the figures for the IC50 in [2] and in data set [8] were above 10 µM and 0.554 µM, respectively. In data set [6], the Ratio IC50 is above 18.
`Cc1cccc(/C=N/c2ccc(C3=NNC(=O)CO3)cc2)c1`: the result in data set [1] and in data set [9] was inactive. Moreover, the half-maximal inhibitory concentration (IC50) in data set [2] is above 100 µM; in [8] it was 1.27 µM. For the same compound, the viability at 24 h, 50 µM in data set [4], in [7] and in data set [10] was above 90% throughout. Further, the “inhibition (INH)” value in data set [5] was “Active”. The Ratio IC50 in data set [6] was above 78.
With `CCN1N=C(c2ccc(/C=C/c3cccc(Cl)c3)cc2)OCC1=O`, the IC50 in data set [2] was above 100 µM; in [8], above 10 µM.
As for `O=C1COC(c2ccc(/N=C/c3ccccc3)cc2)=NN1`, the IC50 in [2] is above 100 µM; in [8], above 10 µM.
As to `CN1N=C(c2ccc(/N=C/c3cccc(Cl)c3)cc2)OCC1=O`, the IC50 in data set [2] was above 100 µM; in data set [8], 2.03 µM. Further, the Ratio IC50 in data set [6] is above 49.
`O=C1COC(c2ccc(NC(=O)Nc3cccc(Cl)c3)cc2)=NN1`: the IC50 in [2] is above 100 µM; in data set [8], 2.89 µM. The Ratio IC50 in [6] was above 34.
Consider `O=C1COC(c2ccc(/N=N/c3ccc(Cl)cc3)cc2)=NN1`, for which the 50% inhibitory concentration (IC50) in [2] was above 100 µM; in data set [8] it was 0.392 µM. The Ratio IC50 in data set [6] was above 255.
Regarding `Cc1cccc(/N=N/c2ccc(C3=NNC(=O)CO3)cc2)c1`, the results for the IC50 in data set [2] and in data set [8] were above 100 µM and 0.025 µM, respectively. Besides, the Ratio IC50 in data set [6] was above 4000.
On to `O=C1COC(c2ccc(/N=C/c3cccc(Cl)c3)cc2)=NN1`, for which the result in data set [1] and in [9] was inactive. Besides, the IC50 in data set [2] is above 100 µM; in [8], 0.257 µM. Besides, the viability at 24 h, 50 µM in data set [4], in data set [7] and in data set [10] was above 90% in each case. In addition, the “inhibition (INH)” value in data set [5] is listed as “Active”. In data set [6], the Ratio IC50 is above 385.
For the compound `N#CCCN1N=C(c2ccc(NC(=O)c3cccc(Cl)c3)cc2)OCC1=O`, the IC50 in [2] is above 100 µM; in [8], 4.23 µM. Moreover, the Ratio IC50 in [6] is above 24.
Take `O=C1COC(c2ccc(NS(=O)(=O)c3cccc(Cl)c3)cc2)=NN1`: the IC50 in data set [2] was above 100 µM; in data set [8], above 10 µM.
Turning to `O=C1COC(c2ccc(/C=C/c3ccc(Cl)cc3)cc2)=NN1`, the IC50 in data set [2] is above 100 µM; in data set [8] it was 0.542 µM. Moreover, in data set [6], the Ratio IC50 was above 185.
Take `O=C1COC(c2ccc(/N=C/c3ccc(Cl)cc3)cc2)=NN1`: the IC50 was above 100 µM in data set [2] and 0.433 µM in data set [8]. Further, the Ratio IC50 in data set [6] was above 231.
Regarding `O=C1COC(c2ccc(/C=N/c3cccc(Cl)c3)cc2)=NN1`, the IC50 is above 100 µM in data set [2] and 0.551 µM in data set [8]. In data set [6], the Ratio IC50 was above 182.
As to `O=C1COC(c2ccc(/N=N/c3ccccc3)cc2)=NN1`, the result in data set [1] and in data set [9] was inactive. For the same compound, the IC50 in [2] was above 100 µM; in [8] it was 0.004 µM. Further, the viability at 24 h, 50 µM in [4], in data set [7] and in data set [10] was above 90% each time. Also, the “inhibition (INH)” value in [11] and in data set [5] was “Active” throughout. For the same compound, the Ratio IC50 in data set [6] was above 25000.
For the compound `O=C1COC(c2ccc(/N=N/c3cccc(F)c3)cc2)=NN1`, the results for the IC50 in [2] and in [8] were above 100 µM and 0.012 µM, respectively. Further, the Ratio IC50 in data set [6] is above 8330.
`O=C1COC(c2ccc(NC(=O)c3cccc(Cl)c3)cc2)=NN1`: the IC50 in [2] was above 100 µM; in data set [8], 0.284 µM. For the same compound, the Ratio IC50 in [6] was above 357.
Take `O=C1COC(c2ccc(/N=N/c3cccc(Cl)c3)cc2)=NN1`: the IC50 in data set [2] is above 100 µM; in data set [8], 0.287 µM. In [6], the Ratio IC50 was above 348.
